Test results from patent US20110212899A1, “Corneal Neuritogenesis Promoter Containing Pacap and Its Derivative” (priority 2004, published 2011).
Where no end group is shown, it is not given here.

Test system: rabbit eye (tear secretion)
Assay: Promoting effect on tear secretion in a rabbit (Schirmer method, Test Example 6)
Assay type: in vivo
Settings: 0.1% eye drops, 50 μL; from 20 minutes to 120 minutes after administration
Description: Changes in the tear amount when PACAP27 and peptide 24 were administered to the eyes of a rabbit were examined. Japanese white rabbits with a body weight of 1.5 to 2.0 kg purchased from Kitayama Labes Co., Ltd were used. The animals were each put in separate cages placed in a room wherein a temperature of 23±3° C. and a humidity of 55±10% were kept and a light was on for 12 hours per day (lighting at 8:00 and lights-out at 20:00), and raised after arrival until the final day of the test. The animals were given 100 g of solid feed (Labo R Stock, Nosan Corporation) per day, and could freely have tap water. PACAP27 and peptide 24 were used as test substances. […] The amount of tear secreted was measured at 8.5 minutes before administration, and at 10 minutes, 20 minutes, 30 minutes, 60 minutes and 120 minutes after the administration by a Schirmer method. […] After the tear in the lower eyelid conjunctival sac was wiped with filter paper, the amount of tear secreted in 1 minute was measured using a Schirmer's test strip (Showa Yakuhin Kako Co.). The difference between the tear secretion amount at each time point after administration of the eye drops and the tear secretion amount before administration of the eye drops was calculated as a change in the tear amount caused by the test substance. […]

His-Ser-Asp-Ala-Ile-Phe-Thr-Asp-Ser-Tyr-Ser-Arg-Tyr-Arg-Arg-Gln-Leu-Ala-Val-Arg-Arg-Tyr-Leu-Ala-Ala-Val-Leu-Gly-Arg-Arg-NH2 (HSDAIFTDSYSRYRRQLAVRRYLAAVLGRR-NH2) [Peptide 24]
tear secretion amount compared with vehicle solution-administration group: significant increase
